Results as given in ChEMBL document CHEMBL4804284.
Calls of active or inactive are those of the source. No cut-off for these calls is given here.

Legend:
[1] = target: Tyrosine-protein kinase JAK1 (Homo sapiens) (UniProt P23458); test: Inhibition of DNA-tagged human JAK1 JH2 pseudokinase domain assessed as percent of control at 50000 nM by qPCR analysis relative to control; design: scale not given: the % may be the effect or the level left
[2] = target: Tyrosine-protein kinase Fyn (Homo sapiens) (UniProt P06241); test: Inhibition of DNA-tagged human FYN assessed as percent of control at 50000 nM by qPCR analysis relative to control; design: scale not given: the % may be the effect or the level left
[3] = target: Tyrosine-protein kinase Fes/Fps (Homo sapiens) (UniProt P07332); test: Inhibition of DNA-tagged human FES assessed as percent of control at 50000 nM by qPCR analysis relative to control; design: scale not given: the % may be the effect or the level left
[4] = target: Ephrin type-A receptor 4 (Homo sapiens) (UniProt P54764); test: Inhibition of DNA-tagged human EPHA4 assessed as percent of control at 50000 nM by qPCR analysis relative to control; design: scale not given: the % may be the effect or the level left
Sequence of Ephrin type-A receptor 4 (Homo sapiens) (P54764 whole entry): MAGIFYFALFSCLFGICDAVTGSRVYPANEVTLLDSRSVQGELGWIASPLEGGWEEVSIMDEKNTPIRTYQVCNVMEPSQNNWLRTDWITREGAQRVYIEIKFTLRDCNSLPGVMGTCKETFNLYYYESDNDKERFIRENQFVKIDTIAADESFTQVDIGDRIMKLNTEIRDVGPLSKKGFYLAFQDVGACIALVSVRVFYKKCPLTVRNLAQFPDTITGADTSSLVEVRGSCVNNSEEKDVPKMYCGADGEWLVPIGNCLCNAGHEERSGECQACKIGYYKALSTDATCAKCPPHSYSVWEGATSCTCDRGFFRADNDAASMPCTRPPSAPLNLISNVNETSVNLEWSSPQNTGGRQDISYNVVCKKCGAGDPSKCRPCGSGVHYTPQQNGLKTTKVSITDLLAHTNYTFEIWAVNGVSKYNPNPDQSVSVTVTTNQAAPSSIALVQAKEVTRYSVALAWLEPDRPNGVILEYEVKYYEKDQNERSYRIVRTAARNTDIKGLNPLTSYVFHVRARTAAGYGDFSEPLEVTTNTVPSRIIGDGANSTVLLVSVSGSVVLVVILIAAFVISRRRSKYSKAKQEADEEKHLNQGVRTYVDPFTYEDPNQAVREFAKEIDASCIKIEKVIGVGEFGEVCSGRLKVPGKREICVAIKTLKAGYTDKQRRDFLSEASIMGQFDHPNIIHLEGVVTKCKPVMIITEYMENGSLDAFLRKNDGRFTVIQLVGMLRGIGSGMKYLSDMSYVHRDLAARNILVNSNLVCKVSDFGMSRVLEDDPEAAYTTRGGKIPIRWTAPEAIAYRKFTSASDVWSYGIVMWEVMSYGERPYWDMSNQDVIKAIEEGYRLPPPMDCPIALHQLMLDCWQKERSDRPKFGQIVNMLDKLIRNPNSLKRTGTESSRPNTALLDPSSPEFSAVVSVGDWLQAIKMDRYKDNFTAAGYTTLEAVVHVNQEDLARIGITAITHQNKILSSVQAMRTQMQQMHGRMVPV

[5] = system: Epidermal growth factor receptor (Homo sapiens), P00533 [UNDEFINED MUTATION]; test: Inhibition of DNA-tagged human EGFR S752-1759del mutant assessed as percent of control at 50000 nM by qPCR analysis relative to control; design: scale not given: the % may be the effect or the level left
[6] = system: Epidermal growth factor receptor (Homo sapiens), P00533 [G719S]; test: Inhibition of DNA-tagged human EGFR G719S assessed as percent of control at 50000 nM by qPCR analysis relative to control; design: scale not given: the % may be the effect or the level left
[7] = target: Dual specificity tyrosine-phosphorylation-regulated kinase 1A (Homo sapiens) (UniProt Q13627); test: Inhibition of DNA-tagged human DYRK1A assessed as percent of control at 50000 nM by qPCR analysis relative to control; design: scale not given: the % may be the effect or the level left
[8] = target: Death-associated protein kinase 3 (Homo sapiens) (UniProt O43293); test: Inhibition of DNA-tagged human DAPK3 assessed as percent of control at 50000 nM by qPCR analysis relative to control; design: scale not given: the % may be the effect or the level left
[9] = target: Death-associated protein kinase 1 (Homo sapiens) (UniProt P53355); test: Inhibition of DNA-tagged human DAPK1 assessed as percent of control at 50000 nM by qPCR analysis relative to control; design: scale not given: the % may be the effect or the level left
[10] = target: Citron Rho-interacting kinase (Homo sapiens) (UniProt O14578); test: Inhibition of DNA-tagged human CIT assessed as percent of control at 50000 nM by qPCR analysis relative to control; design: scale not given: the % may be the effect or the level left
Sequence of Citron Rho-interacting kinase (Homo sapiens) (O14578 whole entry): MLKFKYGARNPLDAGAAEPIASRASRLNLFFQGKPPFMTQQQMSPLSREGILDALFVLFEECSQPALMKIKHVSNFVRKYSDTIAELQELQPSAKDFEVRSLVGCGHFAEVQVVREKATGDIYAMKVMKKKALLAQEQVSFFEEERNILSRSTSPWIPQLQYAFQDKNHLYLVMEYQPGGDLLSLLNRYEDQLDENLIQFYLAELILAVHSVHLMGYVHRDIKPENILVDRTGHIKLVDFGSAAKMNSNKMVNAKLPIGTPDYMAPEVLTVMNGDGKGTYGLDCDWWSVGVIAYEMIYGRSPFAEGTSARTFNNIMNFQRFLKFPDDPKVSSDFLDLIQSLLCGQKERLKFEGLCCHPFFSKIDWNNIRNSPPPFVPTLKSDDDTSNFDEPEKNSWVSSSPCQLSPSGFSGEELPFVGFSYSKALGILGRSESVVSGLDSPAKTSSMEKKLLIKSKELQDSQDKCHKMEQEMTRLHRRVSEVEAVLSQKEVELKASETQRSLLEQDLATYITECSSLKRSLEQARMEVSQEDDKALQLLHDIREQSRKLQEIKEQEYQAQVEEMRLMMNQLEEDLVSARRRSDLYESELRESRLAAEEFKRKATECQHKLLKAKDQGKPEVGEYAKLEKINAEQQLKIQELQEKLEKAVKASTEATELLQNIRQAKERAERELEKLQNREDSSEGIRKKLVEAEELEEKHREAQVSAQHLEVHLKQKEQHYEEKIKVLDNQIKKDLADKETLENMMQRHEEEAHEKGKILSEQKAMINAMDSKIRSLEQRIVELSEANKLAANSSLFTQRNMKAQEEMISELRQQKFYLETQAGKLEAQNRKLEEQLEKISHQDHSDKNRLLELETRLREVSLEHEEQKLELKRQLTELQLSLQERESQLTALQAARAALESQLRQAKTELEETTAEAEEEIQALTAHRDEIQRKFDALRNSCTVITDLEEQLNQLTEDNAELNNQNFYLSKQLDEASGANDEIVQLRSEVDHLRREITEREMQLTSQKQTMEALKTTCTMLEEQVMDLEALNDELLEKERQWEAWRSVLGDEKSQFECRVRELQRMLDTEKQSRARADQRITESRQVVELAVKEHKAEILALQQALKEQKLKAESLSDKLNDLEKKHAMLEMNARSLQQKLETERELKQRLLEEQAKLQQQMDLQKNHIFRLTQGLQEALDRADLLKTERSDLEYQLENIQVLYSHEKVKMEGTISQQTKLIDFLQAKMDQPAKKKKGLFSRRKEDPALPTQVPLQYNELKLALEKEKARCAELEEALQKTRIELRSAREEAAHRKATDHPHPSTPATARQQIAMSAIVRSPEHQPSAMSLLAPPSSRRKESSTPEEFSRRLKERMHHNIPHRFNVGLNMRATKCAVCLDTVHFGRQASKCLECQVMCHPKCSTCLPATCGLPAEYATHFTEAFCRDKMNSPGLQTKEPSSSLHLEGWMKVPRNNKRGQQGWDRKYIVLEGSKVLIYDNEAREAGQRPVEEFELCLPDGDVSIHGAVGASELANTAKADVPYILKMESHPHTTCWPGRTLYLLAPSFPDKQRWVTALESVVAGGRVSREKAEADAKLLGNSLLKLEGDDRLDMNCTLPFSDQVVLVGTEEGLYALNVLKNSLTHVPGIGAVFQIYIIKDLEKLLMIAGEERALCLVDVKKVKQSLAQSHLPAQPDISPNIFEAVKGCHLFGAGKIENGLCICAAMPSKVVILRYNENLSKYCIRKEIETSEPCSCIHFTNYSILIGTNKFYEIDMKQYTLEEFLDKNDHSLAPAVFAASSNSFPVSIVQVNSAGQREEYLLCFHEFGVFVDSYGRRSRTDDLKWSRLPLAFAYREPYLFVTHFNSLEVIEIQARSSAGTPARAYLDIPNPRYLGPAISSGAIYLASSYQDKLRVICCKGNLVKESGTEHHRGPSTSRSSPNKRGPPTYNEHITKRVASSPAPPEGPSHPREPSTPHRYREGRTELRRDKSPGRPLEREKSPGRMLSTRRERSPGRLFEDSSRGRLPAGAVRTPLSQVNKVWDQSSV

[11] = target: Cyclin-dependent kinase 2 (Homo sapiens) (UniProt P24941); test: Inhibition of DNA-tagged human CDK2 assessed as percent of control at 50000 nM by qPCR analysis relative to control; design: scale not given: the % may be the effect or the level left
[12] = target: Cyclin-dependent kinase 13 (Homo sapiens) (UniProt Q14004); test: Inhibition of DNA-tagged human CDC2L5 assessed as percent of control at 50000 nM by qPCR analysis relative to control; design: scale not given: the % may be the effect or the level left
[13] = target: Bone morphogenetic protein receptor type-1B (Homo sapiens) (UniProt O00238); test: Inhibition of DNA-tagged human BMPR1B assessed as percent of control at 50000 nM by qPCR analysis relative to control; design: scale not given: the % may be the effect or the level left
[14] = target: 5'-AMP-activated protein kinase catalytic subunit alpha-2 (Homo sapiens) (UniProt P54646); test: Inhibition of DNA-tagged human AMPK-alpha2 assessed as percent of control at 50000 nM by qPCR analysis relative to control; design: scale not given: the % may be the effect or the level left
Sequence of 5'-AMP-activated protein kinase catalytic subunit alpha-2 (Homo sapiens) (P54646 whole entry, looked up): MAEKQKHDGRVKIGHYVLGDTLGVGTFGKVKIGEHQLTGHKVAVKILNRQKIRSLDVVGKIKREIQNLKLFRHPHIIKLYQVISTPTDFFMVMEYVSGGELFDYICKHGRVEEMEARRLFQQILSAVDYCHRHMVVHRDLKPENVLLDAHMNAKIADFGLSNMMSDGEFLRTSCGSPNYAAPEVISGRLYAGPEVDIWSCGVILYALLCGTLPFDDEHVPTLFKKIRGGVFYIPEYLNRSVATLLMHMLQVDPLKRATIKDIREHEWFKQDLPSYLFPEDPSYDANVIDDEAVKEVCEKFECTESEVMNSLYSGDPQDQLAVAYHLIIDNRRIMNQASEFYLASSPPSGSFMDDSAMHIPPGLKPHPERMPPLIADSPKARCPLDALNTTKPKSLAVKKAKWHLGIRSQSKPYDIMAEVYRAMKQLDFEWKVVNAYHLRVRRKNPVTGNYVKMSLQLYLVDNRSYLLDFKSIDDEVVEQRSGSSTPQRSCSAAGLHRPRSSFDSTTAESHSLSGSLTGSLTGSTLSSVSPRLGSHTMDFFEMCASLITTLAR

[15] = target: AP2-associated protein kinase 1 (Homo sapiens) (UniProt Q2M2I8); test: Inhibition of DNA-tagged human AAK1 assessed as percent of control at 50000 nM by qPCR analysis relative to control; design: scale not given: the % may be the effect or the level left
HEL = test: Cytotoxicity against human HEL cells at 0.1-100 uM assessed as decrease in cell viability relative to control; assay type: functional, cell-based
MV4-11 = test: Cytotoxicity against human MV4-11 cells at 0.1-100 uM assessed as decrease in cell viability relative to control; assay type: functional, cell-based
[16] = system: Mast/stem cell growth factor receptor Kit (Homo sapiens), P10721 [V559D]; test: Inhibition of DNA-tagged human KIT V559D mutant assessed as percent of control at 50000 nM by qPCR analysis relative to control; design: scale not given: the % may be the effect or the level left
[17] = target: Mitogen-activated protein kinase kinase kinase 13 (Homo sapiens) (UniProt O43283); test: Inhibition of DNA-tagged human LZK assessed as percent of control at 50000 nM by qPCR analysis relative to control; design: scale not given: the % may be the effect or the level left
[18] = target: Dual specificity mitogen-activated protein kinase kinase 6 (Homo sapiens) (UniProt P52564); test: Inhibition of DNA-tagged human MEK6 assessed as percent of control at 50000 nM by qPCR analysis relative to control; design: scale not given: the % may be the effect or the level left
Sequence of Dual specificity mitogen-activated protein kinase kinase 6 (Homo sapiens) (P52564 whole entry): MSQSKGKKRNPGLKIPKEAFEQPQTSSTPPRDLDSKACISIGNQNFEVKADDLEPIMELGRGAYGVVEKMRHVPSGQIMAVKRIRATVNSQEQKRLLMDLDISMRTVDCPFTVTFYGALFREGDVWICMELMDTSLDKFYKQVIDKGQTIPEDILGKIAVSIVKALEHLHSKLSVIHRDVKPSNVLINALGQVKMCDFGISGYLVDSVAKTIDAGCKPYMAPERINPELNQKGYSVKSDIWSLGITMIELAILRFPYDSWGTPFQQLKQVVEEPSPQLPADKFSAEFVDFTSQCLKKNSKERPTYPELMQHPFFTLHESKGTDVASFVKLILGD

[19] = target: Cyclin-dependent kinase 18 (Homo sapiens) (UniProt Q07002); test: Inhibition of DNA-tagged human PCTK3 assessed as percent of control at 50000 nM by qPCR analysis relative to control; design: scale not given: the % may be the effect or the level left
[20] = target: Serine/threonine-protein kinase pim-3 (Homo sapiens) (UniProt Q86V86); test: Inhibition of DNA-tagged human PIM3 assessed as percent of control at 50000 nM by qPCR analysis relative to control; design: scale not given: the % may be the effect or the level left
[21] = target: Phosphatidylinositol 5-phosphate 4-kinase type-2 beta (Homo sapiens) (UniProt P78356); test: Inhibition of DNA-tagged human PIP5K2B assessed as percent of control at 50000 nM by qPCR analysis relative to control; design: scale not given: the % may be the effect or the level left
[22] = target: cAMP-dependent protein kinase catalytic subunit beta (Homo sapiens) (UniProt P22694); test: Inhibition of DNA-tagged human PKAC-beta assessed as percent of control at 50000 nM by qPCR analysis relative to control; design: scale not given: the % may be the effect or the level left
[23] = target: Protein-tyrosine kinase 2-beta (Homo sapiens) (UniProt Q14289); test: Inhibition of DNA-tagged human PYK2 assessed as percent of control at 50000 nM by qPCR analysis relative to control; design: scale not given: the % may be the effect or the level left
Sequence of Protein-tyrosine kinase 2-beta (Homo sapiens) (Q14289 whole entry, looked up, the tested form may be a part): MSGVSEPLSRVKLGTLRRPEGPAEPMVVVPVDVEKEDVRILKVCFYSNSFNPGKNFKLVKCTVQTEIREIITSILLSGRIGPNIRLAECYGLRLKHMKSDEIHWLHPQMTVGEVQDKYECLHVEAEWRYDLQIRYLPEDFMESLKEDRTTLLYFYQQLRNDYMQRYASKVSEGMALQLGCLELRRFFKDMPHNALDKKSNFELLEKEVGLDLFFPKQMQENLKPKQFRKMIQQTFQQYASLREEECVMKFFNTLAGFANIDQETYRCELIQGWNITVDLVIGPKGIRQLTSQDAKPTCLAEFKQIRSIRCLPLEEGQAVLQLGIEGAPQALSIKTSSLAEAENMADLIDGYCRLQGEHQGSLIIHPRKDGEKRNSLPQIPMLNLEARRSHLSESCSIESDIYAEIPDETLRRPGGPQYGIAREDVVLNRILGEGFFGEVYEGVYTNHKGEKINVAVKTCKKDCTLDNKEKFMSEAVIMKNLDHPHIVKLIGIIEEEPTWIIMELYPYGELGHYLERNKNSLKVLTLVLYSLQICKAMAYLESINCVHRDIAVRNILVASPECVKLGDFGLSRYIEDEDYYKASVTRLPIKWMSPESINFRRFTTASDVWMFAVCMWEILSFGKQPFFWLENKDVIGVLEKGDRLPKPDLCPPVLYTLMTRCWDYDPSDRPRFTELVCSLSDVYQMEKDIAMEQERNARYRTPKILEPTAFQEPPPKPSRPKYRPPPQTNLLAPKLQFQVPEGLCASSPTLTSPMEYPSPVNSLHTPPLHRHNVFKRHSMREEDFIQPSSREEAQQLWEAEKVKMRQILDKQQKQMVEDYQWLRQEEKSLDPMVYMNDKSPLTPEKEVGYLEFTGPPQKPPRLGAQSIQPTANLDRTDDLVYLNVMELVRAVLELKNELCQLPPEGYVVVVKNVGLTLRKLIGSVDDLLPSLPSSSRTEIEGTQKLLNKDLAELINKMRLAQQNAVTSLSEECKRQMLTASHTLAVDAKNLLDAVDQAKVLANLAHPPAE

[24] = target: Ribosomal protein S6 kinase alpha-6 (Homo sapiens) (UniProt Q9UK32); test: Inhibition of DNA-tagged human C-terminal RSK4 kinase domain 2 assessed as percent of control at 50000 nM by qPCR analysis relative to control; design: scale not given: the % may be the effect or the level left
[25] = target: Tyrosine-protein kinase SYK (Homo sapiens) (UniProt P43405); test: Inhibition of DNA-tagged human SYK assessed as percent of control at 50000 nM by qPCR analysis relative to control; design: scale not given: the % may be the effect or the level left
[26] = target: Serine/threonine-protein kinase TAO2 (Homo sapiens) (UniProt Q9UL54); test: Inhibition of DNA-tagged human TAOK2 assessed as percent of control at 50000 nM by qPCR analysis relative to control; design: scale not given: the % may be the effect or the level left
[27] = target: TGF-beta receptor type-1 (Homo sapiens) (UniProt P36897); test: Inhibition of DNA-tagged human TGFBR1 assessed as percent of control at 50000 nM by qPCR analysis relative to control; design: scale not given: the % may be the effect or the level left
[28] = target: Activated CDC42 kinase 1 (Homo sapiens) (UniProt Q07912); test: Inhibition of DNA-tagged human TNK2 assessed as percent of control at 50000 nM by qPCR analysis relative to control; design: scale not given: the % may be the effect or the level left

CN1C(=O)/C(=C2/C(=O)Nc3ccccc32)c2ccccc21
Activity [1]: 100% | Activity [2]: 100% | Activity [3]: 95% | Activity [4]: 100% | Activity [5]: 88% | Activity [6]: 94% | Activity [7]: 100% | Activity [8]: 93% | Activity [9]: 86% | Activity [10]: 78% | Activity [11]: 100% | Activity [12]: 100% | Activity [13]: 89% | Activity [14]: 100% | Activity [15]: 91% | Activity (HEL): Active | Activity (MV4-11): Active | Activity [16]: 91% | Activity [17]: 63% | Activity [18]: 100% | Activity [19]: 84% | Activity [20]: 79% | Activity [21]: 100% | Activity [22]: 91% | Activity [23]: 100% | Activity [24]: 71% | Activity [25]: 85% | Activity [26]: 84% | Activity [27]: 100% | Activity [28]: 93%
